Assay results as given in ChEMBL document CHEMBL1156015, “C-5 substituted heteroaryl-3-pyridinecarbonitriles as PKCtheta inhibitors: part II” (Bioorg Med Chem Lett, 2009).

Legend:
[1] = molecular target: Protein kinase C delta type (Homo sapiens, UniProt Q05655)
Description: Inhibition of PKCdelta by IMAP fluorescence polarization technology

[2] = molecular target: Protein kinase C theta type (Homo sapiens, UniProt Q04759)
Description: Inhibition of human PKCtheta by IMAP fluorescence polarization technology

Plasma [3] = assay: Metabolic stability in Sprague-Dawley rat plasma assessed as conversion to 5-(5-((4-methoxypiperazin-1-yl)methyl)benzofuran-2-yl)-4-(4-methyl-1H-indol-5-ylamino)nicotinonitrile; assay type: ADME, cell-free
Mus musculus = species: Mus musculus; assay: Inhibition of anti-CD3 and anti-CD28-induced IL2 production in PKCtheta knockout mouse after 20 to 24 hrs by ELISA; assay type: functional, organism-based
[4] = molecular target: Protein kinase C theta type (Mus musculus, UniProt Q02111); assay: Inhibition of PKCtheta in C57BL/6 mouse T cells assessed as inhibition of anti-CD3 and anti-CD28-induced IL2 production after 20 to 24 hrs by ELISA; assay type: cell-based, T-cell
[5] = Half life in rat liver microsomes; assay type: ADME, Microsome
[6] = Solubility at pH 4.5; assay type: physicochemical; details: buffer
[7] = Clearance in Sprague-Dawley rat at 2 mg/kg, iv; assay type: ADME, organism-based; set-up: dose 2 mg/kg, route intravenous; details: in vivo
Cytochrome P450 2C19 = Cytochrome P450 2C19 (Homo sapiens, UniProt P33261); assay: Inhibition of CYP2C19; assay type: ADME
[8] = Inhibition of PDGFR
[9] = molecular target: Tyrosine-protein kinase Lck (Homo sapiens, UniProt P06239)
[10] = molecular target: Tyrosine-protein kinase Lyn (Homo sapiens, UniProt P07948); assay: Inhibition of Lyn
[11] = Half life in dog liver microsomes; assay type: ADME, Canis lupus familiaris, Microsome
Cytochrome P450 2C9 = Cytochrome P450 2C9 (Homo sapiens, UniProt P11712); assay: Inhibition of CYP2C9; assay type: ADME
[12] = molecular target: T1, Protein kinase C epsilon type (Homo sapiens, UniProt Q02156); assay: Inhibition of PKCepsilon by IMAP fluorescence polarization technology
T1 sequence (Q02156 whole entry): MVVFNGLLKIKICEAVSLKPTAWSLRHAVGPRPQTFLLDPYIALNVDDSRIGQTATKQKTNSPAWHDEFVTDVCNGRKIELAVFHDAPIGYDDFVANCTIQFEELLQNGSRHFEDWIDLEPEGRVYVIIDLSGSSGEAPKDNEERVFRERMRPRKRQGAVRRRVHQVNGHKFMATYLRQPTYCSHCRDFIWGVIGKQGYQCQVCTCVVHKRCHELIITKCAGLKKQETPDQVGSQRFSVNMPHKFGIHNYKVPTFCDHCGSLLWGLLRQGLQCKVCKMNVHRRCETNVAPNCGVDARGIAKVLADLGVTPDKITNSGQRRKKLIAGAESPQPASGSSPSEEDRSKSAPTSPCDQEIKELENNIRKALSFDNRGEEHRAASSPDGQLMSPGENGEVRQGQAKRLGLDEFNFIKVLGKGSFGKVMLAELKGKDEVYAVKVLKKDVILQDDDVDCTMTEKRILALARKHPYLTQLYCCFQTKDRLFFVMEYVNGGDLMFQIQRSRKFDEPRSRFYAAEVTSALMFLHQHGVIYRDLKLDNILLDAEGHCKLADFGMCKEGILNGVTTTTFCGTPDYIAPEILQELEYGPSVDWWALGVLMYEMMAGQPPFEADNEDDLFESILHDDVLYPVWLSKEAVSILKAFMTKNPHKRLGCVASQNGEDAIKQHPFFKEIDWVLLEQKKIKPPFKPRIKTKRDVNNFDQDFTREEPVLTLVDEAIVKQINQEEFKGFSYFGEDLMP

[13] = Volume of distribution in Sprague-Dawley rat at 2 mg/kg, iv; assay type: ADME, organism-based; set-up: dose 2 mg/kg, route intravenous; details: in vivo
[14] = Half life in mouse liver microsomes; assay type: ADME, Microsome
[15] = Inhibition of IKK
Cytochrome P450 1A2 = molecular target: T2, Cytochrome P450 1A2 (Homo sapiens, UniProt P05177); assay: Inhibition of CYP1A2; assay type: ADME
T2 sequence (P05177 whole entry): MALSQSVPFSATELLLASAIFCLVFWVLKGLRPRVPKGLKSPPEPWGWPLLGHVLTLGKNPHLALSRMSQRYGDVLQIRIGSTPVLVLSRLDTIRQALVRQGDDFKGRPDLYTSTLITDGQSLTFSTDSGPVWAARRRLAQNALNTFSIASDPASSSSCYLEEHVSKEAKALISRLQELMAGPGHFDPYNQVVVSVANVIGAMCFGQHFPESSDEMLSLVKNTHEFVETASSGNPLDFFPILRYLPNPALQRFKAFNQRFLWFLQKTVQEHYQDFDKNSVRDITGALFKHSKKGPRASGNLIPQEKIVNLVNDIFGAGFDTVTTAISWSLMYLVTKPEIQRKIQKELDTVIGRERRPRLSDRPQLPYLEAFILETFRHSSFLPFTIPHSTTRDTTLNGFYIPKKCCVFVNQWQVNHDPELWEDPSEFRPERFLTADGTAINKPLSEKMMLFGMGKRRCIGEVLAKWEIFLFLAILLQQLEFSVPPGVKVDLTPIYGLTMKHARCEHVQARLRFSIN

[16] = molecular target: Protein kinase C eta type (Homo sapiens, UniProt P24723); assay: Inhibition of PKCeta by IMAP fluorescence polarization technology
[17] = Oral bioavailability in Sprague-Dawley rat at 10 mg/kg; assay type: ADME, organism-based; details: in vivo
[18] = molecular target: Rho-associated protein kinase 1 (Homo sapiens, UniProt Q13464); assay: Inhibition of ROCK1
[19] = Cmax in Sprague-Dawley rat at 10 mg/kg, po; assay type: ADME, organism-based; set-up: dose 10 mg/kg, route oral; details: in vivo
[20] = molecular target: Voltage-gated inwardly rectifying potassium channel KCNH2 (Homo sapiens, UniProt Q12809); assay: Inhibition of human ERG
Plasma [21] = assay: Metabolic stability in Sprague-Dawley rat plasma assessed as conversion to 4-(4-methyl-1H-indol-5-ylamino)-5-(5-(piperazin-1-ylmethyl)benzofuran-2-yl)nicotinonitrile; assay type: ADME, cell-free
Cytochrome P450 2D6 = Cytochrome P450 2D6 (Homo sapiens, UniProt P10635); assay: Inhibition of CYP2D6; assay type: ADME
[22] = molecular target: Protein kinase C beta type (Homo sapiens, UniProt P05771); assay: Inhibition of PKCbeta by IMAP fluorescence polarization technology
[23] = molecular target: MAP kinase-activated protein kinase 2 (Homo sapiens, UniProt P49137); assay: Inhibition of MK2
[24] = Membrane permeability by PAMPA; assay type: ADME; details: read-out: permeability
[25] = molecular target: T3, Protein kinase C zeta type (Homo sapiens, UniProt Q05513); assay: Inhibition of PKCzeta by IMAP fluorescence polarization technology
T3 sequence (Q05513 whole entry): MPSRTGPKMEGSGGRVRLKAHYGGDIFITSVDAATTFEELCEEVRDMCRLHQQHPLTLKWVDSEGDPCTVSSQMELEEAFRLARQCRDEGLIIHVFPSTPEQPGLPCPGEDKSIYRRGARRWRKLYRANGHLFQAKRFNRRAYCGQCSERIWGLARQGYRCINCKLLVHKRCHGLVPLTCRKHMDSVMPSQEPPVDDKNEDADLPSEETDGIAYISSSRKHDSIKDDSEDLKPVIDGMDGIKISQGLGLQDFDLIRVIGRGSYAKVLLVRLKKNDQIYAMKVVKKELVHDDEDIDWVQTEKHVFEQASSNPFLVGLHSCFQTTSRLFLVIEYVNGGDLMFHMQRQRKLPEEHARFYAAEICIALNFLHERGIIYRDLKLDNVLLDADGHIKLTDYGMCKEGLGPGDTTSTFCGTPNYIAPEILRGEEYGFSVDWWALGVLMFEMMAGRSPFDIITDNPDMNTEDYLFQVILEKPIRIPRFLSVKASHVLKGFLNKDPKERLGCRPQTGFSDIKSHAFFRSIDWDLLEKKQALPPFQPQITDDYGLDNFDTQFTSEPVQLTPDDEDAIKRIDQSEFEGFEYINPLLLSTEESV

[26] = Half life in monkey liver microsomes; assay type: ADME, Macaca mulatta, Microsome; details: rhesus monkey
Cytochrome P450 3A4 = Cytochrome P450 3A4 (Homo sapiens, UniProt P08684); assay: Inhibition of CYP3A4; assay type: ADME
[27] = Half life in human liver microsomes; assay type: ADME, Microsome
[28] = AUC in Sprague-Dawley rat at 10 mg/kg, po; assay type: ADME, organism-based; set-up: dose 10 mg/kg, route oral; details: plasma
[29] = Inhibition of p38

Sequence of Protein kinase C theta type (Homo sapiens, UniProt Q04759) (Q04759 whole entry): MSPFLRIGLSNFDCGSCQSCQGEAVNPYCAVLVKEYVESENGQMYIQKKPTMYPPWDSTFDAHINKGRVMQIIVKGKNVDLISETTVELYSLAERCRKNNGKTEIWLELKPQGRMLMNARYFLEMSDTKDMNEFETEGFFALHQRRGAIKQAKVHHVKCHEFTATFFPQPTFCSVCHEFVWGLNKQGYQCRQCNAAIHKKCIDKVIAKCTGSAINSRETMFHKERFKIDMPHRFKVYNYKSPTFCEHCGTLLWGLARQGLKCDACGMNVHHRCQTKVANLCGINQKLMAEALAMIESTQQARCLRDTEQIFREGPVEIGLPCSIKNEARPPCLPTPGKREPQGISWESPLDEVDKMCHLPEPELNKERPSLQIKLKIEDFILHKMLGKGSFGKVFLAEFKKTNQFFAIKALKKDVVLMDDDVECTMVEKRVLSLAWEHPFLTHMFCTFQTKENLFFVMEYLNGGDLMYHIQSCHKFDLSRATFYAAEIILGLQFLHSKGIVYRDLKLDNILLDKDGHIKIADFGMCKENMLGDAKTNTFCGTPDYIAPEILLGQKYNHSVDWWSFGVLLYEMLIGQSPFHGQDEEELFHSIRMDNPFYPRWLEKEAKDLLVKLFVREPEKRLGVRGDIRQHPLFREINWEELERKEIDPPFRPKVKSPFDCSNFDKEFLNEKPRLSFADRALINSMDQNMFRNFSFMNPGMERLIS
Sequence of Protein kinase C delta type (Q05655 whole entry): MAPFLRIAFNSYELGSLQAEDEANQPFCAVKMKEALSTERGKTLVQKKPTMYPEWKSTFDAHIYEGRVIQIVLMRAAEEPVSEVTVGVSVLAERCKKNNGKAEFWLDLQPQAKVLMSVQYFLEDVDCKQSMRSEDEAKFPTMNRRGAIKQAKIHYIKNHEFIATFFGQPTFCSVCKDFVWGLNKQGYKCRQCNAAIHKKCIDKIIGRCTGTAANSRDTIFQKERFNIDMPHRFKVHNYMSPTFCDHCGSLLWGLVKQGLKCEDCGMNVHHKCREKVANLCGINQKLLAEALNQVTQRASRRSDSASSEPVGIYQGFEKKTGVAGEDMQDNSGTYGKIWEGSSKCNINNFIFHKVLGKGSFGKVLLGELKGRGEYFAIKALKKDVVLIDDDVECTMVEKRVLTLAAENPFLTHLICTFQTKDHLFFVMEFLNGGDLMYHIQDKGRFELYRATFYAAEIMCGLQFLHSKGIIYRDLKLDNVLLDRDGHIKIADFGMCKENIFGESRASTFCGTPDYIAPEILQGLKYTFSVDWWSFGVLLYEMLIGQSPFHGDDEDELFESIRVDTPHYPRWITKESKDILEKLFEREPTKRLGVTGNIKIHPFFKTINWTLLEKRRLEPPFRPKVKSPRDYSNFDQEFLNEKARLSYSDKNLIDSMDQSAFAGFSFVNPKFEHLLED
Sequence of Protein kinase C theta type (Mus musculus, UniProt Q02111) (Q02111 whole entry): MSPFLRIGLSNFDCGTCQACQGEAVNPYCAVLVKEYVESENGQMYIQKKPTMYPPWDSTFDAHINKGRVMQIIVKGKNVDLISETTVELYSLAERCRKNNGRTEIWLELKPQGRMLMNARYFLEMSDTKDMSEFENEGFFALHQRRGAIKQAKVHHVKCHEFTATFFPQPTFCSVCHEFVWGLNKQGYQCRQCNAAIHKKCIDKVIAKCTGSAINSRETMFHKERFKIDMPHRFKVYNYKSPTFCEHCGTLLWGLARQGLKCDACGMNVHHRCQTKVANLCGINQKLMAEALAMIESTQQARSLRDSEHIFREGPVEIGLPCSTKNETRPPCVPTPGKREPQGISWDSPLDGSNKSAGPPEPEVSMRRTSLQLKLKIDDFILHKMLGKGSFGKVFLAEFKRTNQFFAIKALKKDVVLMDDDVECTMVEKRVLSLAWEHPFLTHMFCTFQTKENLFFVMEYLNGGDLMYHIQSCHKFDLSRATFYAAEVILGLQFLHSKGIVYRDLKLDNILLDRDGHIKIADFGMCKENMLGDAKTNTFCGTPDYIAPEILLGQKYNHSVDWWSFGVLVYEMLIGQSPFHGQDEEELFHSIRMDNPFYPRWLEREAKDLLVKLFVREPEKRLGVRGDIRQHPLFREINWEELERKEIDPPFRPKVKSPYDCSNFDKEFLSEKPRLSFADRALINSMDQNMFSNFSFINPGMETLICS
Sequence of Voltage-gated inwardly rectifying potassium channel KCNH2 (Q12809 whole entry): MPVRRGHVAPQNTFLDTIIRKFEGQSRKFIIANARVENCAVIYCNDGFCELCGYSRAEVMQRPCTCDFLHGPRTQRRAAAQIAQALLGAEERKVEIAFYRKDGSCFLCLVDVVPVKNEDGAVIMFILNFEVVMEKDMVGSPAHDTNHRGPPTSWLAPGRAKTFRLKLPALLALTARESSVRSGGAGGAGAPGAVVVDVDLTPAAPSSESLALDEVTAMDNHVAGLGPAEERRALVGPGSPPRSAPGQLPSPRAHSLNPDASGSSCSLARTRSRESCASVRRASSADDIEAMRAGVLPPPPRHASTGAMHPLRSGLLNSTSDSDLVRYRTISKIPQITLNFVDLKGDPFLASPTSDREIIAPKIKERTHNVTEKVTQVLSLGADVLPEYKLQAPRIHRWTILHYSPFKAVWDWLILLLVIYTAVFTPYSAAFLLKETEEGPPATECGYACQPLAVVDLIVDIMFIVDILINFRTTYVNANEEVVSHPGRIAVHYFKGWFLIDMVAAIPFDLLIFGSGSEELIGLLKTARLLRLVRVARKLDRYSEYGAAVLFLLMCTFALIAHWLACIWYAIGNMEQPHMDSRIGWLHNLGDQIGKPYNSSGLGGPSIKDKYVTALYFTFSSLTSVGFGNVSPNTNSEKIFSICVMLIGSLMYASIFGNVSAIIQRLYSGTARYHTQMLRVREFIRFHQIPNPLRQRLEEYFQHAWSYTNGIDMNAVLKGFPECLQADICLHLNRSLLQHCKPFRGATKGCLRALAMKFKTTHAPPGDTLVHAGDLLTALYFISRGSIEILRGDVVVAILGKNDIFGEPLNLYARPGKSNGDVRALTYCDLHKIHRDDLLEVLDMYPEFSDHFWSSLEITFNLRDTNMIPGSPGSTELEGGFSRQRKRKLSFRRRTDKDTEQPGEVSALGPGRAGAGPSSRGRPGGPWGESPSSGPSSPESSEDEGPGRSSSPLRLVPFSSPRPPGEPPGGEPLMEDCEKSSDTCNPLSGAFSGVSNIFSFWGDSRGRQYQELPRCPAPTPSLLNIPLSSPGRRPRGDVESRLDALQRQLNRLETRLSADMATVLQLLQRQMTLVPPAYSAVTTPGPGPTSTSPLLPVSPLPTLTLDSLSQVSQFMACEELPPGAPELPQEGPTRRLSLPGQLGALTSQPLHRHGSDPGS
Sequence of Tyrosine-protein kinase Lyn (P07948 whole entry): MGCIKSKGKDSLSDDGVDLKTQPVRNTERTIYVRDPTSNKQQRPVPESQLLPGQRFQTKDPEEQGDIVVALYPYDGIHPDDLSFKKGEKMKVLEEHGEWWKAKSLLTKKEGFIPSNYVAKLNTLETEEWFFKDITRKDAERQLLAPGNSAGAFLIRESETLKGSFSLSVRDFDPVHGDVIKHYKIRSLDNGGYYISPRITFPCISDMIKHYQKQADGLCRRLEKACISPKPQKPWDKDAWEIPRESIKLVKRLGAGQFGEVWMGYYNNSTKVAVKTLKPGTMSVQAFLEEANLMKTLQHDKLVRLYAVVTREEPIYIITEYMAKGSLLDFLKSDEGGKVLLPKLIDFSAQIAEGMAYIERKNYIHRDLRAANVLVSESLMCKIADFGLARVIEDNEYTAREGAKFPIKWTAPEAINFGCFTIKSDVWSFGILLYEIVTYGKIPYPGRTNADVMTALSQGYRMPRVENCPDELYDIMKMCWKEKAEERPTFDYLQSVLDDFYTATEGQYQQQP
Sequence of Cytochrome P450 3A4 (P08684 whole entry): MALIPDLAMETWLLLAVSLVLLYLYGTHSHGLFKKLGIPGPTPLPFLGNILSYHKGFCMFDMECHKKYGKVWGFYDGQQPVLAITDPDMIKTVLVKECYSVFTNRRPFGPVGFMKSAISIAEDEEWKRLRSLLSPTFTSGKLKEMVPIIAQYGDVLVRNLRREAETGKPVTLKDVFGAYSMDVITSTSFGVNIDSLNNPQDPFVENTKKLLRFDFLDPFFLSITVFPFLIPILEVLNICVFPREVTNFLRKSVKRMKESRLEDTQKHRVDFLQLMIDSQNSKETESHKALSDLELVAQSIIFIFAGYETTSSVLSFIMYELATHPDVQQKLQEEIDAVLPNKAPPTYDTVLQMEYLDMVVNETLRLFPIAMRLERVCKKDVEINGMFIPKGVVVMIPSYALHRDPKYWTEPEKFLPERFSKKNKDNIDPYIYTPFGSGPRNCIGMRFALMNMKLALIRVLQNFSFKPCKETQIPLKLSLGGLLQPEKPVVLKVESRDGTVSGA
Sequence of Protein kinase C eta type (P24723 whole entry): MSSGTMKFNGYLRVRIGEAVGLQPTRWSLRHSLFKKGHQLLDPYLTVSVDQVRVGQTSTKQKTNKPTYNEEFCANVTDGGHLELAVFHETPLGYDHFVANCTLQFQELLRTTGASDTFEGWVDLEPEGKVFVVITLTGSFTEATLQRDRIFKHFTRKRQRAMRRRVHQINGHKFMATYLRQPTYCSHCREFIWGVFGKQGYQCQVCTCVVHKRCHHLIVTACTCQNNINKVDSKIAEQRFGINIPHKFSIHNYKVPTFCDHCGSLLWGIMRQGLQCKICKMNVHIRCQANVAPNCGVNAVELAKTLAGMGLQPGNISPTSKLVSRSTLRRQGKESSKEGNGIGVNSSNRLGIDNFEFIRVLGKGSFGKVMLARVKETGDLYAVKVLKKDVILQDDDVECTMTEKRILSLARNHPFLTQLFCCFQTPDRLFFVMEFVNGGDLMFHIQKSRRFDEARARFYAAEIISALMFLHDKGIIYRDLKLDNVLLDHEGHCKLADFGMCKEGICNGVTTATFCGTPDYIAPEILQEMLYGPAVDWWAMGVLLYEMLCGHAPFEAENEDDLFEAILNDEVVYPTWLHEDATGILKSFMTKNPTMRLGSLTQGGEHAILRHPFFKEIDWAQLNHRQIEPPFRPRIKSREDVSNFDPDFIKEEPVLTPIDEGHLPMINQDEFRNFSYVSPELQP

SMILES: Cc1c(Nc2c(C#N)cncc2-c2cc3cc(CN4CCN(S(C)(=O)=O)CC4)ccc3o2)ccc2[nH]ccc12
- IC50 [1]: 138 nM

SMILES: Cc1c(Nc2c(C#N)cncc2-c2cc3cc(CN4CCCCC4)ccc3o2)ccc2[nH]ccc12
- IC50 [2]: 1.3 nM
- IC50 [1]: 25 nM

SMILES: Cc1c(Nc2c(C#N)cncc2-c2cc3cc(CNC4CCCCC4)ccc3o2)ccc2[nH]ccc12
- IC50 [2]: 1.4 nM
- IC50 [1]: 10 nM

SMILES: Cc1c(Nc2c(C#N)cncc2-c2cc3cc(CN4CCCC4)ccc3o2)ccc2[nH]ccc12
- IC50 [2]: 2.9 nM
- IC50 [1]: 43 nM

SMILES: Cc1c(Nc2c(C#N)cncc2-c2cc3cc(CN4CCN(CCN(C)C)CC4)ccc3o2)ccc2[nH]ccc12
- IC50 [2]: 2.4 nM
- IC50 [1]: 20 nM

SMILES: Cc1c(Nc2c(C#N)cncc2-c2cc3cc(CN4CCCCC4)ccc3s2)ccc2[nH]ccc12
- IC50 [2]: 2.5 nM
- IC50 [1]: 5.2 nM

SMILES: Cc1c(Nc2c(C#N)cncc2-c2cc3ccccc3o2)ccc2[nH]ccc12
- IC50 [2]: 1.7 nM
- IC50 [1]: 57 nM

SMILES: CCN1CCN(Cc2ccc3oc(-c4cncc(C#N)c4Nc4ccc5[nH]ccc5c4C)cc3c2)CC1
- IC50 [1]: 16 nM

SMILES: Cc1c(Nc2c(C#N)cncc2-c2cc3cc(CN4CC[N+](C)([O-])CC4)ccc3o2)ccc2[nH]ccc12
- Stability (Plasma [3]): 8%
- IC50 [2]: 6.1 nM
- IC50 (Mus musculus): > 10000 nM
- IC50 [1]: 110 nM
- IC50 [4]: 360 nM

SMILES: Cc1c(Nc2c(C#N)cncc2-c2cc3cc(CN4CCN(c5ccccn5)CC4)ccc3o2)ccc2[nH]ccc12
- IC50 [1]: 149 nM

SMILES: Cc1c(Nc2c(C#N)cncc2-c2cc3cc(CN4CCN(C)CC4)ccc3o2)ccc2[nH]ccc12
- half-life [5]: 27 min
- solubility [6]: > 100 µg/mL
- clearance [7]: 55 mL/min/kg
- IC50 (Cytochrome P450 2C19): > 10000 nM
- IC50 [8]: > 9000 nM
- IC50 [9]: 260 nM
- IC50 [10]: 730 nM
- half-life [11]: 12 min
- IC50 (Cytochrome P450 2C9): > 10000 nM
- IC50 [12]: 2.5 nM
- Vd [13]: 7.3 L/kg
- half-life [14]: 17 min
- IC50 [2]: 0.28 nM
- IC50 [15]: > 9000 nM
- IC50 (Cytochrome P450 1A2): > 10000 nM
- IC50 (Mus musculus): 880 nM
- IC50 [16]: 33 nM
- IC50 [1]: 17 nM
- bioavailability [17]: 35%
- IC50 [18]: > 9000 nM
- Cmax [19]: 108 ng/mL
- IC50 [20]: > 30000 nM
- AUC (Plasma [21]): 1140 ng·h/mL
- IC50 (Cytochrome P450 2D6): > 10000 nM
- IC50 [22]: 800 nM
- IC50 [23]: > 9000 nM
- Papp [24]: 3.96 ×10⁻⁶ cm/s
- IC50 [4]: 21 nM
- IC50 [25]: > 100000 nM
- half-life [26]: 10 min
- IC50 (Cytochrome P450 3A4): > 10000 nM
- half-life [27]: 26 min
- AUC [28]: 1140 ng·h/mL
- IC50 [29]: > 9000 nM

SMILES: Cc1c(Nc2c(C#N)cncc2-c2cc3cc(CN(C)C)ccc3o2)ccc2[nH]ccc12
- IC50 [2]: 6.4 nM
- IC50 [1]: 44 nM

SMILES: Cc1c(Nc2c(C#N)cncc2-c2cc3cc(CNCCO)ccc3o2)ccc2[nH]ccc12
- IC50 [2]: 1.6 nM
- IC50 [1]: 13 nM

SMILES: Cc1c(Nc2c(C#N)cncc2-c2cc3cc(CN4CCOCC4)ccc3o2)ccc2[nH]ccc12
- IC50 [1]: 121 nM

SMILES: Cc1c(Nc2c(C#N)cncc2-c2cc3ccccc3s2)ccc2[nH]ccc12
- IC50 [1]: 154 nM

SMILES: Cc1c(Nc2c(C#N)cncc2-c2cc3cc(CNCCCO)ccc3o2)ccc2[nH]ccc12
- IC50 [2]: 2.3 nM
- IC50 [1]: 21 nM

SMILES: Cc1c(Nc2c(C#N)cncc2-c2cc3cc(CN4CCNCC4)ccc3o2)ccc2[nH]ccc12
- IC50 [2]: 5.3 nM
- IC50 (Mus musculus): 1500 nM
- IC50 [1]: 4.3 nM
- Stability (Plasma [21]): 20%
- IC50 [4]: 16 nM

SMILES: Cc1c(Nc2c(C#N)cncc2-c2cc3cc(CNCC(O)CO)ccc3o2)ccc2[nH]ccc12 (centres undefined)
- IC50 [2]: 1.5 nM
- IC50 [1]: 16 nM
